Data reported in patent US20040097567A1, “Pharmaceutical composition” (priority 2001, published 2004).

Tested on: diabetic rats, n0STZ
Test: Oral glucose tolerance test (OGTT) in n0STZ diabetic rats: plasmatic glycaemia and insulinaemia
Assay type: in vivo, rat
Settings: for Plasmatic insulin / Plasmatic glucose / Plasmatic glucose AUC / Plasmatic insulin AUC: OGTT glucose 2 g/kg, products given 2 hours before, Compound A 12.5 mg/kg, glibenclamide 2 mg/kg; for Plasmatic glucose AUC / Plasmatic insulin AUC: AUC over 0-120 min; for effect on carbohydrate tolerance: acute administration, 12.5 mg/kg compound A or 2 mg/kg glibenclamide
Experimental: Diabetes is induced in male rats (source: Iffa Credo) by intravenous administration of streptozotocin on the day of birth.
The rats are selected according to the criterion of hyperglycaemia 170±15 mg/dl.
The animals are grouped into 5 rats per batch and divided into 4 batches
The products are administered 2 hours before the glucose tolerance test, at a rate of 12.5 mg/kg for 4-[2-(2,4-dioxothiazolidin-5-yl)ethoxy]benzonitrile, 2 mg/kg for glibenclamide and the combination of the 2 products at the doses used in monotherapy.
The glucose tolerance test (OGTT) is performed on the conscious animal and consists in administering glucose at a rate of 2 g/kg. The plasmatic glucose clearance is analysed after this glucose load, over 2 hours (0-10-20-30-45-60-90 and 120 min).
In addition to plasmatic glycaemia, insulinaemia is also determined.

Row | SMILES | Plasmatic insulin (0 min) | Plasmatic glucose (0 min, 5 rats/batch) | Plasmatic glucose (10 min) | Plasmatic insulin (10 min) | Plasmatic glucose (20 min) | Plasmatic insulin (20 min) | Plasmatic glucose (30 min) | Plasmatic insulin (30 min) | Plasmatic glucose (45 min) | Plasmatic insulin (45 min) | Plasmatic glucose (60 min) | Plasmatic insulin (60 min) | Plasmatic glucose (90 min) | Plasmatic insulin (90 min) | Plasmatic glucose (120 min) | Plasmatic insulin (120 min) | Plasmatic glucose AUC | Plasmatic insulin AUC | effect on carbohydrate tolerance (n0STZ rats, OGTT) | also measured
1 | N#Cc1ccc(OCCC2SC(=O)NC2=O)cc1 (stereo not shown) [Compound A, 4-[2-(2,4-dioxothiazolidin-5-yl)ethoxy]benzonitrile] | 47.2 μU/ml | 160 mg/dL | 321 mg/dL | 100.8 μU/ml | 381 mg/dL | 89.6 μU/ml | 418 mg/dL | 84.5 μU/ml | 424 mg/dL | 74.6 μU/ml | 447 mg/dL | 77 μU/ml | 419 mg/dL | 93.8 μU/ml | 378 mg/dL | 101.5 μU/ml | 47702.5 | 10384.25 | little or no effect | decrease observed (carbohydrate tolerance, glucose curve vs control) (acute 12.5 mg/kg, n0STZ rats, OGTT): 6%
2 | COc1ccc(Cl)cc1C(=O)NCCc1ccc(S(=O)(=O)NC(=O)NC2CCCCC2)cc1 [Glibenclamide] | 84.2 μU/ml | 138 mg/dL | 312 mg/dL | 116.9 μU/ml | 407 mg/dL | 129.4 μU/ml | 470 mg/dL | 105.8 μU/ml | 520 mg/dL | 100 μU/ml | 513 mg/dL | 88.3 μU/ml | 507 mg/dL | 92.5 μU/ml | 448 mg/dL | 97.5 μU/ml | 55027.5 | 11930.75 | little or no effect | increase observed (carbohydrate tolerance, glucose curve vs control) (acute 2 mg/kg, n0STZ rats, OGTT): 6%
